Assay results reported in patent US6365619B1, “Treatment of arteriosclerosis” (Novartis AG, priority 1999, dated 2002).

What was measured:
[1] = tested on: neointimal formation in a mouse model of carotid artery transplantation; experiment: Murine carotid artery loop transplantation: neointimal formation (transplant-associated arteriosclerosis); type: in vivo; settings: mean±SD
Text: The effect of compound 369 (VLA-4 antagonist) and compound 741 (VCAM-1 inhibitor) on the development of transplant-associated arteriosclerosis as measured by neointimal formation in a mouse model of carotid artery transplantation is investigated as mono-, combined, and tolerance induction therapy. Grafts are harvested at 30 days post-transplantation.
A murine model of accelerated transplant arteriosclerosis is used. Carotid arteries are allografted from B10.A (2R) to B10.BR mice, a commercially available strain combination that consistently results in neointimal formation 30 days after transplantation. The procedure is performed on anesthetized mice under a surgical dissecting microscope. A midline incision is made on the ventral side of neck from the suprasternal notch to the chin. The left carotid artery is gently dissected from the bifurcation in the distal end toward the proximal end as far as is technically possible. The artery is then occluded with two microvascular clamps, one at each end, and two longitudinal arteriotomies (0.5 to 0.6 mm) are made with a fine needle and scissors. In the donor mouse both the left and right carotid arteries are fully dissected from the arch to the bifurcation. The graft is then transplanted paratopically into the recipient in an end-to-side anastamosis with 11/0 continuous suture, and the skin incision is closed with a 5/0 interrupted suture. […] Vascular grafts are harvested 30 days after transplantation, a point at which a fully developed, nearly occlusive neointima is formed.
Compound 369: In the monotherapy experiments, compound 369 is administered three times per day subcutaneously (s.c.) for a total daily dose of 90 mg/kg/day.
Compound 741: Compound 741 is administered continuously via alzet pump in a dose of 5.0, 1.0, and 0.5 mg/kg/day, respectively.
Anti VLA-4 Mab: The anti VLA-4 antibody is administered 100 μg/mouse/d i.p.
A fixed dose of compound 369 is given as a total daily dose of 60 mg/kg/day s.c. and compound 741 is administered continuously via alzet pump at a dose of 5.0, 1.0, and 0.5 mg/kg/day, respectively.
Compound 369 (60 mg/kg/d) and compound 741 (5 mg/kg/d) are given simultaneously for the first 10 days only.
In all cases, allografts are harvested at day 30. […]
Morphometrical analysis is performed on VerHoeff stained paraffin sections using a computer-assisted image analysis system. The areas of the neointima are measured by computerized planimetry of sections obtained approximately 150, 300, and 450 μm from the center of the graft.
Data from morphometric analyses are reported as the neointima area on cross-section determined by subtracting the new lumen area measurement from the internal elastic lamina (IEL) area measurement for each animal. […]

[2] = Dissolution of compound 741 in dosing vehicle; type: physicochemical; settings: 1:1 mixture of CsA placebo solution (Cremphor, ethanol) and propylene glycol
Experimental: Compound 741 is dissolved in a 1:1 mixture of CsA placebo solution (each mL contains 650 mg of Cremphor and 32.9% ethanol) and propylene glycol. Compound 741 is very soluble in this mixture and the final solution is clear.

| Compound | neointima area on cross-section ([1]; monotherapy compound 369 90 mg/kg/d s.c. (three times per day), allograft harvested day 30) | solubility [2] | neointima area on cross-section ([1]; monotherapy Cmpd.741 0.5 mg/kg/d continuously via alzet pump, allograft harvested day 30) | neointima area on cross-section ([1]; monotherapy Cmpd.741 1 mg/kg/d continuously via alzet pump, allograft harvested day 30) | neointima area on cross-section ([1]; monotherapy Cmpd.741 5 mg/kg/d continuously via alzet pump, B10.A (2R) to B10.BR allograft harvested day 30) |
| --- | --- | --- | --- | --- | --- |
| COCCCN(CC(=O)N[C@@H](CC(=O)O)c1ccc(OC)c(OC)c1)C(=O)Cc1ccc(NC(=O)Nc2ccccc2C)cc1 [Cmpd.369, (S)-β-[3-Methoxypropyl)[[4-[(2-methylphenylaminocarbonylamino)-phenyl]acetyl]amino]acetylamino-3,4-dimethoxy-benzenepropanoic Acid] | 19,874 μm^2 |  |  |  |  |
| CCCCC(C)CC1NC(=O)C(Cc2cn(OC)c3ccccc23)N(C)C(=O)C(CC(C)C)NC(=O)C(CC(C)C)N(C)C(=O)C(CC(C)CCCC)NC(=O)C(CCC(=O)OCCC)OC(=O)C(C)N(C)C1=O (centres unmarked) [Cmpd.741] |  | very soluble | 30,926 μm^2 | 32,249 μm^2 | 18,804 μm^2 |
